The subject of the series is CCRIS mutagenicity, Ames/micronucleus/aberration tests. As to the kind of experiment: CCRIS mutagenicity studies.
Setting [1] is: Test System: AMES SALMONELLA TYPHIMURIUM, Strain/Indicator: TA98, Metabolic Activation: NONE, Method: STANDARD PLATE.
The mark [2] stands for this setting: Test System: AMES SALMONELLA TYPHIMURIUM, Strain/Indicator: TA100, Metabolic Activation: NONE, Method: STANDARD PLATE.
Where [3] appears, read: Test System: AMES SALMONELLA TYPHIMURIUM, Strain/Indicator: TA1535, Metabolic Activation: NONE, Method: STANDARD PLATE.
The mark [4] stands for this setting: Test System: AMES SALMONELLA TYPHIMURIUM, Strain/Indicator: TA1537, Metabolic Activation: NONE, Method: STANDARD PLATE.

The source made the active and inactive calls. The rule behind the calls is not given here.

Data on seven compounds can be found in PubChem BioAssay AID1259407 (Chemical Carcinogenesis Research Information System (CCRIS), 2018).

Take `CCN(CC)c1ccc2c(-c3ccc(S(=O)(=O)O)cc3S(=O)(=O)[O-])c3ccc(=[N+](CC)CC)cc-3oc2c1`: the mutagenic call reads like this: (End Point: IN VIVO MICRONUCLEUS, Test System: BONE MARROW POLYCHROMATIC ERYTHROCYTES, Species: MOUSE, Strain/Sex: DDY/MALE, Route: IP) “inactive; negative”; (Test System: AMES SALMONELLA TYPHIMURIUM, Strain/Indicator: TA98, Metabolic Activation: HAMSTER, LIVER, S-9, AROCLOR 1254 (10%), Method: STANDARD PLATE) “active; positive”; under setting [1], “inactive; negative”; (Test System: AMES SALMONELLA TYPHIMURIUM, Strain/Indicator: TA98, Metabolic Activation: RAT, LIVER, S-9, AROCLOR 1254 (10%), Method: STANDARD PLATE) “active; positive”; (Test System: AMES SALMONELLA TYPHIMURIUM, Strain/Indicator: TA100, Metabolic Activation: HAMSTER, LIVER, S-9, AROCLOR 1254 (10%), Method: STANDARD PLATE) “inactive; negative”; under setting [2], “inactive; negative”. Further, the mutagenic call reads like this: (Test System: AMES SALMONELLA TYPHIMURIUM, Strain/Indicator: TA100, Metabolic Activation: RAT, LIVER, S-9, AROCLOR 1254 (10%), Method: STANDARD PLATE) “inactive; negative”; (Test System: AMES SALMONELLA TYPHIMURIUM, Strain/Indicator: TA1538, Metabolic Activation: NONE, Method: STANDARD PLATE) “inactive; negative”; (Test System: AMES SALMONELLA TYPHIMURIUM, Strain/Indicator: TA1538, Metabolic Activation: RAT, LIVER, S-9, AROCLOR 1254, Method: STANDARD PLATE) “inactive; negative”; (Test System: MOUSE LYMPHOMA, Strain/Indicator: L5178Y (TK+/TK-), Metabolic Activation: NONE, Method: SUSPENSION/PLATE) “inactive; negative”; (Test System: MOUSE LYMPHOMA, Strain/Indicator: L5178Y (TK+/TK-), Metabolic Activation: RAT, LIVER, S-9, AROCLOR 1254, Method: SUSPENSION/PLATE) “active; positive”.

Consider `O=c1[nH]c2ccccc2n1C1CCN(CCCC(c2ccc(F)cc2)c2ccc(F)cc2)CC1`, for which the mutagenic call runs as follows: under setting [1], “inactive; negative”; (Test System: AMES SALMONELLA TYPHIMURIUM, Strain/Indicator: TA98, Metabolic Activation: RAT, LIVER, S-9, AROCLOR 1254, Method: STANDARD PLATE) “inactive; negative”; under setting [2], “inactive; negative”; (Test System: AMES SALMONELLA TYPHIMURIUM, Strain/Indicator: TA100, Metabolic Activation: RAT, LIVER, S-9, AROCLOR 1254, Method: STANDARD PLATE) “inactive; negative”; under setting [3], “inactive; negative”; (Test System: AMES SALMONELLA TYPHIMURIUM, Strain/Indicator: TA1535, Metabolic Activation: RAT, LIVER, S-9, AROCLOR 1254, Method: STANDARD PLATE) “inactive; negative”. In addition, the mutagenic call by setting is: under setting [4], “inactive; negative”; (Test System: AMES SALMONELLA TYPHIMURIUM, Strain/Indicator: TA1537, Metabolic Activation: RAT, LIVER, S-9, AROCLOR 1254, Method: STANDARD PLATE) “inactive; negative”.

Turning to `CC(=O)ON(OCc1ccc(C(C)(C)C)cc1)C(=O)c1ccccc1`, the mutagenic call under setting [2] is “active; positive”.

For the compound `OC[C@H]1OC(O[C@H]2[C@H](O)[C@@H](O)C(O[C@H]3[C@H](O)[C@@H](O)[C@@H](O)O[C@@H]3CO)O[C@@H]2CO)[C@H](O)[C@@H](O)[C@@H]1O` (some centres not stated), the mutagenic call under setting [1] is “inactive; negative”; the mutagenic call (Test System: AMES SALMONELLA TYPHIMURIUM, Strain/Indicator: TA98, Metabolic Activation: RAT, LIVER, S-9, Method: STANDARD PLATE) was “inactive; negative”; the mutagenic call under setting [2] was “inactive; negative”; the mutagenic call (Test System: AMES SALMONELLA TYPHIMURIUM, Strain/Indicator: TA100, Metabolic Activation: RAT, LIVER, S-9, Method: STANDARD PLATE) was “inactive; negative”; the mutagenic call under setting [3] is “inactive; negative”; the mutagenic call (Test System: AMES SALMONELLA TYPHIMURIUM, Strain/Indicator: TA1535, Metabolic Activation: RAT, LIVER, S-9, Method: STANDARD PLATE) was “inactive; negative”. Also, the mutagenic call by setting is: under setting [4], “inactive; negative”; (Test System: AMES SALMONELLA TYPHIMURIUM, Strain/Indicator: TA1537, Metabolic Activation: RAT, LIVER, S-9, Method: STANDARD PLATE) “inactive; negative”; (Test System: E. COLI, Strain/Indicator: WP2 UVRA, Metabolic Activation: NONE, Method: STANDARD PLATE) “inactive; negative”; (Test System: E. COLI, Strain/Indicator: WP2 UVRA, Metabolic Activation: RAT, LIVER, S-9, Method: STANDARD PLATE) “inactive; negative”.

For the compound `O=C(O[C@@H]1Cc2c(O)cc(O)cc2O[C@@H]1c1cc(O)c(O)c(O)c1)c1cc(O)c(O)c(O)c1`, the mutagenic call (Test System: Ames Salmonella typhimurium, Strain/Indicator: TA102, Metabolic Activation: None, Method: Preincubation) is “inactive; negative” and the mutagenic call (Test System: Ames Salmonella typhimurium, Strain/Indicator: TA102, Metabolic Activation: Rat, Liver, S-9, Aroclor 1254 in 0.154 M KCl, Method: Preincubation) is “inactive; negative”.

Regarding `CO[C@]1(CC[C@@H](C)CO[C@@H]2O[C@H](CO)[C@@H](O)[C@H](O)[C@H]2O)O[C@H]2C[C@H]3[C@@H]4CC=C5C[C@@H](O[C@@H]6O[C@H](CO)[C@@H](O[C@@H]7O[C@@H](C)[C@H](O)[C@@H](O)[C@H]7O)[C@H](O)C6O[C@@H]6O[C@@H](C)[C@H](O)[C@@H](O)[C@H]6O)CC[C@]5(C)[C@H]4CC[C@]3(C)[C@H]2[C@@H]1C` (some centres not stated), the mutagenic call is “inactive; negative” under setting [1]; “inactive; negative” (Test System: AMES SALMONELLA TYPHIMURIUM, Strain/Indicator: TA98, Metabolic Activation: RAT, LIVER, S-9, PHENOBARBITAL, Method: STANDARD PLATE); “inactive; negative” under setting [2]; “inactive; negative” (Test System: AMES SALMONELLA TYPHIMURIUM, Strain/Indicator: TA100, Metabolic Activation: RAT, LIVER, S-9, PHENOBARBITAL, Method: STANDARD PLATE).

In the case of `c1cnc2ccc3c(c2c1)CC[C@@H]1O[C@H]31`, the mutagenic call under setting [2] was “inactive; negative”.
